These results are taken from patent publication US10981926B2 (Janssen Pharmaceutica NV, priority 2016, dated 2021).

What all share (format): cell-based
The target in experiment [1] is T1, wild-type Androgen Receptor (AR-wt) (Homo sapiens (Human), UniProt P10275). The experiment is described as follows: LNCaP-AR-wt ANT reporter assay (antagonist mode). To be noted: for Emax: read-out: LNCaP-AR-wt ANT MAX % Inh; for IC50: pIC50 = −Log10(IC50 in Molar), read-out: LNCaP-AR-wt ANT pIC50 (converted). In general terms: In a reporter assay the amount or activity of a reporter protein is the signal.
T1 sequence (P10275 whole entry): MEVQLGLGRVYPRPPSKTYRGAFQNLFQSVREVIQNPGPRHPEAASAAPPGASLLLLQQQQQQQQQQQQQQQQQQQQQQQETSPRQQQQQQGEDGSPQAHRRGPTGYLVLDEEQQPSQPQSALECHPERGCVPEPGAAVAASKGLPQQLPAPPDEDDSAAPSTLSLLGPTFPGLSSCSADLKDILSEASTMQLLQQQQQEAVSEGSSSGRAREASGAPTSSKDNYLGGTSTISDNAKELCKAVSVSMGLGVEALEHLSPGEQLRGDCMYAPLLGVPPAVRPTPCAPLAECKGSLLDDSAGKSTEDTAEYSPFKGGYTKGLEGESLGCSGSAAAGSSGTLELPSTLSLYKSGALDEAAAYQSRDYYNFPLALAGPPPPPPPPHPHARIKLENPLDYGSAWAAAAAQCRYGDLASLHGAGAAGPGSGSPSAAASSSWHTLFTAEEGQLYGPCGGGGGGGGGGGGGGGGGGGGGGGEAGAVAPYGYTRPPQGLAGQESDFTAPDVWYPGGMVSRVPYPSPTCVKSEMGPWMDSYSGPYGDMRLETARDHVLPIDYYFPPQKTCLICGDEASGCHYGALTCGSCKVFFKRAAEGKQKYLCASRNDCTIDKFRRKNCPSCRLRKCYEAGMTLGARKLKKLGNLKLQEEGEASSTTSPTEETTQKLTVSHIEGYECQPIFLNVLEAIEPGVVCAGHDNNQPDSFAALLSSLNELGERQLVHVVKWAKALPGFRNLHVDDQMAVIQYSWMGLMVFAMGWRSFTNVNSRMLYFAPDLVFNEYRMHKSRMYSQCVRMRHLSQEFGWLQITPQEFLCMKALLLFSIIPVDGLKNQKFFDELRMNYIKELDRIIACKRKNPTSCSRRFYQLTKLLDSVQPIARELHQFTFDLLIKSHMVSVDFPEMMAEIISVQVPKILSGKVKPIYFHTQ

In experiment [2] the target is T1, wild-type Androgen Receptor (AR-wt). The experiment is described as follows: LNCaP-AR-wt AG reporter assay (agonist mode). The note with it: for Emax: read-out: LNCaP-AR-wt AG MAX % Stim; for EC50: pEC50 = −Log10(EC50 in Molar), read-out: LNCaP-AR-wt AG pEC50 (converted).
Experiment [3] concerns the target T2, F876L mutant Androgen Receptor (AR-F876L) (Homo sapiens (Human), UniProt P10275, F877L). Put plainly: LNCaP-AR-F876L ANT reporter assay (antagonist mode). To be noted: for Emax: read-out: LNCaP-AR-F876L ANT MAX % Inh; for IC50: pIC50 = −Log10(IC50 in Molar), read-out: LNCaP-AR-F876L ANT pIC50 (converted).
The target in experiment [4] is T2, F876L mutant Androgen Receptor (AR-F876L). Put plainly: LNCaP-AR-F876L AG reporter assay (agonist mode). The note with it: for Emax: read-out: LNCaP-AR-F876L AG MAX % Stim; for EC50: pEC50 = −Log10(EC50 in Molar), read-out: LNCaP-AR-F876L AG pEC50 (converted).
[5] abbreviates: antagonist mode, maximum % inhibition of R1881 control response over tested concentration range.
Setting [6] is: agonist mode, maximum % stimulation over tested concentration range.
The mark [7] stands for this setting: maximum % inhibition of R1881 control response over the tested concentration range.
Setting [8] is: maximum % stimulation (agonist response) over the tested concentration range.

T2 sequence (P10275 whole entry F877L): as the sequence (P10275 whole entry) above, with F877L counted along it

As to `N#Cc1ncc(N2C(=O)C3(CCC3)N(c3ccc(OC4CCNC5(CCC5)C4)nc3)C2=S)cc1C(F)(F)F` (racemic) [Cpd 188, (R,S)-5-[8-[6-(9-azaspiro[3.5]nonan-6-yloxy)-3-pyridyl]-5-oxo-7-thioxo-6,8-diazaspiro[3.4]octan-6-yl]-3-(trifluoromethyl)pyridine-2-carbonitrile], the Emax in experiment [1] (setting [5]) was 104%; in experiment [2] (setting [6]), -0.2%; in experiment [3] (setting [5]), 104%; in experiment [4] (setting [6]) it was 0.3%. Besides, the results for the IC50 in experiment [1] (antagonist mode) and in experiment [3] (antagonist mode) were 219 nM and 170 nM, respectively. In addition, the EC50 in experiment [2] (agonist mode) and in experiment [4] (agonist mode) was greater than 15100 nM throughout.

As to `N#Cc1ncc(N2C(=O)C3(CCC3)N(c3ccc(OC4CCSCC4)cc3)C2=S)cc1C(F)(F)F` [Cpd 12, 5-[5-oxo-8-(4-thian-4-yloxyphenyl)-7-thioxo-6,8-diazaspiro[3.4]oct-6-yl]-3-(trifluoromethyl)pyridine-2-carbonitrile], the values for the IC50 in experiment [1] (antagonist mode) and in experiment [3] (antagonist mode) were 661 nM and 117 nM, respectively. Also, the Emax in experiment [1] (setting [7]) stood at 101%; in experiment [2] (setting [8]) it was 0.5%; in experiment [3] (setting [7]), 98.5%; in experiment [4] (setting [8]), 0.7%. Moreover, the EC50 in experiment [2] (agonist mode) and in experiment [4] (agonist mode) was greater than 15100 nM throughout.

For `COc1cc(N2C(=O)C3(CCC3)N(c3ccc4c(cnn4C4CCN(C)CC4)c3)C2=S)cnc1C#N` [Cpd 213, 3-methoxy-5-[8-[1-(1-methyl-4-piperidyl)indazol-5-yl]-5-oxo-7-thioxo-6,8-diazaspiro[3.4]octan-6-yl]pyridine-2-carbonitrile], the Emax in experiment [1] (setting [5]) is 102%; in experiment [2] (setting [6]), 0.2%; in experiment [3] (setting [5]), 100%; in experiment [4] (setting [6]), 0.1%. Moreover, the results for the IC50 in experiment [1] (antagonist mode) and in experiment [3] (antagonist mode) were 550 nM and 282 nM, respectively. Moreover, the EC50 in experiment [2] (agonist mode) and in experiment [4] (agonist mode) was greater than 15100 nM in each case.

Regarding `N#Cc1ncc(N2C(=O)C3(CCC3)N(c3ccc(CN4CCC(N)CC4)cc3)C2=S)cc1C(F)(F)F` [Cpd 224, 5-[8-[4-[(4-amino-1-piperidyl)methyl]phenyl]-5-oxo-7-thioxo-6,8-diazaspiro[3.4]octan-6-yl]-3-(trifluoromethyl)pyridine-2-carbonitrile], the Emax turned out to be 101% in experiment [1] (setting [5]), 0% in experiment [2] (setting [6]), 100% in experiment [3] (setting [5]) and 0.1% in experiment [4] (setting [6]). Also, the IC50 in experiment [1] (antagonist mode) is 1780 nM; in experiment [3] (antagonist mode), 1480 nM. Moreover, the EC50 in experiment [2] (agonist mode) and in experiment [4] (agonist mode) was greater than 15100 nM throughout.

On to `COc1ccc(N2C(=S)N(c3cnc(C#N)c(C(F)(F)F)c3)C(=O)C23CCC3)cn1` [Cpd 15, 5-[8-(6-methoxy-3-pyridyl)-5-oxo-7-thioxo-6,8-diazaspiro[3.4]octan-6-yl]-3-(trifluoromethyl)pyridine-2-carbonitrile], for which the IC50 is 240 nM in experiment [1] (antagonist mode) and 191 nM in experiment [3] (antagonist mode). For the same compound, the Emax in experiment [1] (setting [7]) was 101%; in experiment [2] (setting [8]) it was -0.1%; in experiment [3] (setting [7]) it was 100%; in experiment [4] (setting [8]), 1.1%. The EC50 in experiment [2] (agonist mode) and in experiment [4] (agonist mode) was greater than 15100 nM each time.

As for `Cc1cc(N2C(=O)C3(CCC3)N(c3ccc(OC4CCSCC4)nc3)C2=S)cnc1C#N` [Cpd 21, 3-methyl-5-[5-oxo-8-(6-thian-4-yloxy(3-pyridyl))-7-thioxo-6,8-diazaspiro[3.4]oct-6-yl]pyridine-2-carbonitrile], the IC50 in experiment [1] (antagonist mode) is 501 nM; in experiment [3] (antagonist mode), 309 nM. Moreover, the Emax in experiment [1] (setting [7]) was 80.6%; in experiment [2] (setting [8]), -0.1%; in experiment [3] (setting [7]) it was 69.9%; in experiment [4] (setting [8]) it was 0.3%. Moreover, the EC50 in experiment [2] (agonist mode) and in experiment [4] (agonist mode) was greater than 15100 nM in each case.

For the compound `Cc1cc(N2C(=O)C3(CCC3)N(c3ccc(-c4cn[nH]c4)cc3)C2=S)cnc1C#N` [Cpd 3, 3-methyl-5-[5-oxo-8-[4-(1H-pyrazol-4-yl)phenyl]-7-thioxo-6,8-diazaspiro[3.4]octan-6-yl]pyridine-2-carbonitrile], the IC50 in experiment [1] (antagonist mode) was 407 nM; in experiment [3] (antagonist mode), 324 nM. In addition, the Emax in experiment [1] (setting [7]) stood at 97.8%; in experiment [2] (setting [8]) it was 2.2%; in experiment [3] (setting [7]), 98.9%; in experiment [4] (setting [8]), 1.8%. Also, the EC50 in experiment [2] (agonist mode) and in experiment [4] (agonist mode) was greater than 15100 nM in each case.

Consider `COc1cc(N2C(=O)C3(CCC3)N(c3ccc4nn(CCO)cc4c3)C2=S)cnc1C#N` [Cpd 164, 5-[8-[2-(2-hydroxyethyl)indazol-5-yl]-5-oxo-7-thioxo-6,8-diazaspiro[3.4]octan-6-yl]-3-methoxy-pyridine-2-carbonitrile], for which the IC50 was 537 nM in experiment [1] (antagonist mode) and 295 nM in experiment [3] (antagonist mode). Besides, the Emax in experiment [1] (setting [7]) was determined as 102%; in experiment [2] (setting [8]), 0.3%; in experiment [3] (setting [7]), 101%; in experiment [4] (setting [8]), 0%. The EC50 in experiment [2] (agonist mode) and in experiment [4] (agonist mode) was greater than 15100 nM in each case.

With `CN1CC2CCC(C1)C2Oc1ccc(N2C(=S)N(c3cnc(C#N)c(C(F)(F)F)c3)C(=O)C23CCC3)cn1` (stereo not shown) [Cpd 147, 5-[8-[6-[(3-methyl-3-azabicyclo[3.2.1]octan-8-yl)oxy]-3-pyridyl]-5-oxo-7-thioxo-6,8-diazaspiro[3.4]octan-6-yl]-3-(trifluoromethyl)pyridine-2-carbonitrile], the IC50 was 224 nM in experiment [1] (antagonist mode) and 209 nM in experiment [3] (antagonist mode). For the same compound, the Emax in experiment [1] (setting [7]) was 102%; in experiment [2] (setting [8]), -0.1%; in experiment [3] (setting [7]), 101%; in experiment [4] (setting [8]), -0.1%. For the same compound, the EC50 in experiment [2] (agonist mode) and in experiment [4] (agonist mode) was greater than 15100 nM each time.

For the compound `CN1CC[C@@H](Oc2ccc(N3C(=S)N(c4cnc(C#N)c(C(F)(F)F)c4)C(=O)C34CCC4)cc2)C[C@H]1C(F)(F)F` (racemic) [Cpd 158, 5-[8-[4-[[(2SR, 4RS)-1-methyl-2-(trifluoromethyl)-4-piperidyl]oxy]phenyl]-5-oxo-7-thioxo-6,8-diazaspiro[3.4]octan-6-yl]-3-(trifluoromethyl)pyridine-2-carbonitrile], the IC50 in experiment [1] (antagonist mode) was 316 nM; in experiment [3] (antagonist mode), 427 nM. Further, the Emax in experiment [1] (setting [7]) came out at 100%; in experiment [2] (setting [8]) it was 0.3%; in experiment [3] (setting [7]), 95.6%; in experiment [4] (setting [8]), 2.3%. Also, the EC50 in experiment [2] (agonist mode) and in experiment [4] (agonist mode) was greater than 15100 nM each time.

For `CN1C2CCC1CC(c1ccc(N3C(=S)N(c4cnc(C#N)c(C(F)(F)F)c4)C(=O)C34CCC4)cc1)C2` (stereo not shown) [Cpd 114, 5-(5-(4-(8-methyl-8-azabicyclo[3.2.1]octan-3-yl)phenyl)-8-oxo-6-thioxo-5,7-diazaspiro[3.4]octan-7-yl)-3-(trifluoromethyl)picolinonitrile], the IC50 in experiment [1] (antagonist mode) is 2690 nM; in experiment [3] (antagonist mode), 1020 nM. In addition, the Emax in experiment [1] (setting [7]) was 102%; in experiment [2] (setting [8]) it was -0.1%; in experiment [3] (setting [7]), 101%; in experiment [4] (setting [8]), 0.3%. Besides, the EC50 in experiment [2] (agonist mode) and in experiment [4] (agonist mode) was greater than 15100 nM throughout.

As for `CN1CC[C@@H](CNC(=O)c2ccc(N3C(=S)N(c4cnc(C#N)c(C(F)(F)F)c4)C(=O)C34CCC4)cc2F)C1` [Cpd 205, 4-[6-[6-cyano-5-(trifluoromethyl)-3-pyridyl]-5-oxo-7-thioxo-6,8-diazaspiro[3.4]octan-8-yl]-2-fluoro-N-[[(3S)-1-methylpyrrolidin-3-yl]methyl]benzamide], the Emax in experiment [1] (setting [5]) is 101%; in experiment [2] (setting [6]), -0.1%; in experiment [3] (setting [5]) it was 100%; in experiment [4] (setting [6]), 0.1%. The IC50 is 1100 nM in experiment [1] (antagonist mode) and 708 nM in experiment [3] (antagonist mode). The EC50 in experiment [2] (agonist mode) and in experiment [4] (agonist mode) was greater than 15100 nM in each case.

Turning to `N#Cc1ncc(N2C(=O)C3(CCC3)N(c3ccc(OC4CCNC5(CCC5)C4)cc3)C2=S)cc1C(F)(F)F` (racemic) [Cpd 151, (R,S)-5-[8-[4-(9-azaspiro[3.5]nonan-6-yloxy)phenyl]-5-oxo-7-thioxo-6,8-diazaspiro[3.4]octan-6-yl]-3-(trifluoromethyl)pyridine-2-carbonitrile], the results for the IC50 in experiment [1] (antagonist mode) and in experiment [3] (antagonist mode) were 234 nM and 145 nM, respectively. For the same compound, the Emax in experiment [1] (setting [7]) is 106%; in experiment [2] (setting [8]), 0%; in experiment [3] (setting [7]), 104%; in experiment [4] (setting [8]), -0.1%. The EC50 in experiment [2] (agonist mode) and in experiment [4] (agonist mode) was greater than 15100 nM in each case.

Take `CC(=O)N1CCC(n2cc3ccc(N4C(=S)N(c5cnc(C#N)c(C(F)(F)F)c5)C(=O)C45CCC5)cc3n2)CC1` [Cpd 198, 5-[8-[2-(1-acetyl-4-piperidyl)indazol-6-yl]-5-oxo-7-thioxo-6,8-diazaspiro[3.4]octan-6-yl]-3-(trifluoromethyl)pyridine-2-carbonitrile]: the Emax stood at 102% in experiment [1] (setting [5]), 0.1% in experiment [2] (setting [6]), 102% in experiment [3] (setting [5]) and 0.1% in experiment [4] (setting [6]). Besides, the IC50 in experiment [1] (antagonist mode) and in experiment [3] (antagonist mode) was 562 nM in each case. For the same compound, the EC50 in experiment [2] (agonist mode) and in experiment [4] (agonist mode) was greater than 15100 nM throughout.
